Where a name gives a salt, the structure may show the parent alone.
Molecular target: T1, PAF receptor (Oryctolagus cuniculus, UniProt G1TEI7)
T1 construct: platelet membranes were prepared by centrifugation and washing; tissue Pel-Freez (Rogers, AR); host or cells: rabbit platelets from citrated whole blood (membranes)
Experiment: PAF receptor binding assay ([^3 H]C18 -PAF, rabbit platelet membranes)
Conditions: 0.6 nM [^3 H]C18 -PAF, 60 min, 22-23 °C, Ki from IC50 by Cheng and Prusoff
Experimental: The ability of representative compounds of the present invention to inhibit PAF activity was determined in an in vitro test using the following method. Citrated whole rabbit blood was obtained from Pel-Freez (Rogers, AR). Rabbit platelets were prepared by centrifugation and washing. The platelets were lysed by freeze-thawing and sonication; platelet membranes were prepared by centrifugation and washing. Final membrane preparations were stored frozen in 10 mM Tris/5 mM MgCl2 /2 mM EDTA (TME buffer, pH 7.0) with 0.25M sucrose added for membrane stabilization. […] The final volume of the assay was 100 μl. The assay was conducted in […] (Millipore Corp.) filtration plates; incubation time was for 60 minutes at room temperature (22°-23° C.). "Specific binding" was operationally defined as the arithmetic difference between "total binding" of 0.6 nM [^3 H]C18 -PAF (in the absence of added PAF) and "nonspecific binding" (in the presence of 1 μM PAF). After the prescribed incubation, platelet membranes were filtered under vacuum, and washed with 1 millilitre of "binding buffer". The filters were dried and removed. The bound radioactivity was quantitated with a Berthold TLC-Linear Analyzer model LB2842. Dose-response curves of inhibition of specific [^3 H]C18 -PAF binding by test compounds were conducted in triplicate, with at least four doses covering the active range. Experiments were repeated at least once. IC50 values (concentration producing 50% inhibition) were determined by point-to-point evaluation. Ki values of inhibitory binding constants were calculated according to the method of Cheng and Prusoff [Biochem. Pharmacol. 22 (1973) 3099-3108] whereby [formula] The values of Ki for representative compounds of the present invention appear in Table 1.

T1 sequence (G1TEI7 1-342): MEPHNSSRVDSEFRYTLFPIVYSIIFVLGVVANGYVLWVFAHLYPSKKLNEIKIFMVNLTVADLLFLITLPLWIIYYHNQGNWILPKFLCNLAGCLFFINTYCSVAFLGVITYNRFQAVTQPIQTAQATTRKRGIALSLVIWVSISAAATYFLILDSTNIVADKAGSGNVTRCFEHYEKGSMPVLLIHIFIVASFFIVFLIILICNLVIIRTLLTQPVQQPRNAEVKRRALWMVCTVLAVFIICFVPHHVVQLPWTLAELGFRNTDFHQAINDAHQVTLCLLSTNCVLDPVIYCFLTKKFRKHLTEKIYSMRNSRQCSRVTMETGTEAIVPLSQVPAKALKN

| Molecule | Ki |
| --- | --- |
| COc1cc(C(=O)c2cccc(NC[C@H]3CC[C@@H](c4cccnc4)N3)c2)cc(OC)c1OC (relative stereo) [13 (cis), N-[3-(3,4,5-trimethoxybenzoyl)phenyl][2-(3-pyridyl)-pyrrolidin-5-yl]methylamine] | 2300 nM |
| COc1cc(C(=O)c2cccc(NC[C@H]3CC[C@H](c4cccnc4)N3)c2)cc(OC)c1OC (relative stereo) [13 (trans), N-[3-(3,4,5-trimethoxybenzoyl)phenyl][2-(3-pyridyl)-pyrrolidin-5-yl]methylamine] | 8700 nM |
| COc1cc(C(=O)c2cccc(NCC3CSC(c4cccnc4)N3C(=O)OC(C)(C)C)c2)cc(OC)c1OC (single isomer, unassigned) [Example 1a] | 6770 nM |
| COc1cc(C(=O)c2cccc(NCC3CSC(c4cccnc4)N3C(=O)OC(C)(C)C)c2)cc(OC)c1OC (single isomer, unassigned) [Example 1b] | 13000 nM |
| COc1cc(C(=O)c2cccc(NCC3CSC(c4cccnc4)N3)c2)cc(OC)c1OC (stereo not drawn) [Example 2, N-[3-(3,4,5-trimethoxybenzoylphenyl]2-(3-pyridinyl)thiazolid-4-ylmethylaminetrihydrochloride] | 10 nM |
| CC(C)(C)OC(=O)N1C(CNc2cccc(C(=O)c3ccccc3)c2)CSC1c1cccnc1 (stereo not drawn) [Example 3, N-(3-benzoylphenyl)2-(3-pyridinyl)-3-tert-butoxycarbonylthiazolid-4-ylmethylamine] | 8700 nM |
| O=C(c1ccccc1)c1cccc(NCC2CSC(c3cccnc3)N2)c1 (stereo not drawn) [Example 4, N-(3-benzoylphenyl)2-(3-pyridinyl)thiazolid-4-ylmethylamine] | 23 nM |
| O=C(c1ccccc1)c1cccc(NCC2CSC(c3cccnc3)N2)c1 (stereo not drawn) [Example 5, N-(3-benzoylphenyl)2-(3-pyridinyl)thiazolid-4-ylmethylamine trihydrochloride] | 38 nM |
| O=C(c1ccccc1)c1ccccc1NCC1CSC(c2cccnc2)N1 (stereo not drawn) [Example 6, N-(2-benzoylphenyl)2-(3-pyridinyl)thiazolid-4-ylmethylamine] | 430 nM |
| O=C(c1ccccc1)c1ccc(NCC2CSC(c3cccnc3)N2)cc1 (stereo not drawn) [Example 7, N-(4-benzoylphenyl)2-(3-pyridinyl)thiazolid-4-ylmethylamine] | 1200 nM |
| c1ccc(Oc2ccc(NCC3CSC(c4cccnc4)N3)cc2)cc1 (stereo not drawn) [Example 8, N-(4-phenoxyphenyl)2-(3-pyridinyl)thiazolid-4-ylmethylamine] | 190 nM |
| CN1C(CNc2cccc(C(=O)c3ccccc3)c2)CSC1c1cccnc1 (stereo not drawn) [Example 9, N-(3-benzoylphenyl)[2-(3-pyridinyl)-3-methylthiazolid-4-yl]methylamine dihydrochloride] | 1400 nM |
| O=C(c1ccccc1)c1cccc(NCC2CSC(c3cccnc3)S2)c1 (stereo not drawn) [Example 11, N-(3-benzoylphenyl)2-(3-pyridinyl)dithiolan-4-ylmethylamine] | 160 nM |
| CN(CC1CSC(c2cccnc2)N1)c1cccc(C(=O)c2ccccc2)c1 (stereo not drawn) [Example 12, N-(3-benzoylphenyl) N-methyl 2-(3-pyridinyl)thiazolid-4-ylmethylamine trihydrochloride] | 3400 nM |
| COc1cc(C(=O)c2cccc(NC(=O)NCC3CSC(c4cccnc4)N3)c2)cc(OC)c1OC (stereo not drawn) [Example 14, N-[2-(3-pyridinyl)thiazolid-4-ylmethyl]-N'-[3-(3,4,5-trimethoxybenzoyl)phenyl]urea] | 110 nM |
| O=C(NCC1CSC(c2cccnc2)N1)Nc1cccc(C(=O)c2ccccc2)c1 (stereo not drawn) [Example 15, N-[2-(3-pyridinyl)thiazolid-4-ylmethyl]N'-(3-benzoylphenyl)urea dihydrochloride] | 150 nM |
| O=C(NCC1CSC(c2cccnc2)S1)Nc1cccc(C(=O)c2ccccc2)c1 (stereo not drawn) [Example 16, N-[2-(3-pyridinyl)dithiolan-4-ylmethyl]N'-(3-benzoylphenyl)urea] | 750 nM |
| N-[3-(3,4,5-trimethoxybenzoylphenyl]2-(3-pyridinyl)dithiolan-4-ylmethylamine dihydrochloride [Example 10] | 900 nM |
